These results are taken from patent US20220362299A1, “ENGINEERED NATURAL KILLER CELLS AND METHODS FOR USING THE SAME IN IMMUNOTHERAPY AND AUTOPHAGY INHIBITON TECHNIQUES” (Purdue Research Foundation, priority 2019, published 2022).

For data set [1], the system named is GBM43 cells. As to the kind of experiment: Killing of CQ-treated GBM43 cells by pNK cells. Type of data set: cell-based, human. Particulars: E/T ratio 5, 4 h. The method, then:
GBM43 cells were first treated with CQ (varying concentrations), then collected and re-seeded into 96 wells. After overnight culture, the NK cells (NK92 control cells and pNK cells against BECN1^−GBM43) were added at an E/T ratio of 5 and co-incubated for 4 h.
To further investigate the impact of the inhibition of autophagy on the cytotoxic capacity of NK cells, CQ-treated GBM43 cells or BECN1^− GBM43 cells were incubated with pNK cells for 4 h at an E/T ratio of 5.

The test system of data set [2] is GBM43 cells. As to the kind of experiment: Subcutaneous GBM43 xenograft model. Type of data set: in vivo, NSG mice. The method, then: Subcutaneous GBM xenografts were established by inoculating NSG mice with 3×10^6 GBM43 cells in the right flank. Ten days later, when tumors reached a volume of about 80 mm^3, mice were randomly assigned to 5 groups (n=4/group) and treated according to one of the following protocols: (1) PBS only; (2) intravenous (IV) injection of 5×10^6 pNK cells alone; (3) intravenous (IV) injection of 5×10^6 CD73.mCAR-pNK cells alone (Construct 1); (4) intraperitoneal (IP) injection of CQ (50 mg/kg) alone. NK cells were administered once a week for three weeks. The mice receiving adoptive NK cells therapy (groups 2 and 3) also received IL-15 (0.5 μg/mice) by IP injection every 3-4 days. Tumor growth was followed by caliper measurements and tumor volumes were calculated using the formula: V=0.52×L×W×H as described above. Body weights of the mice were recorded throughout the treatment. At the end of the therapy, the mice were sacrificed and tumors were harvested for histologic (IHC/IF) analyses.
(§1) Immunohistochemistry (IHC) and immunofluorescence (IF) staining were carried out at the Histology Research Laboratory at the Purdue University College of Veterinary Medicine (West Lafayette, Ind.). Briefly, the tumors were fixed in 10% neutral-buffered formalin, embedded in paraffin, and cut into 3-5 μm sections.
CCL5 and CXCL10 expression in the tumors were detected through the staining using human CCL5/RANTES antibody and CXCL10 antibody respectively. The staining was evaluated based on the intensity (weak=1, moderate=2, and high=3) of chemokine immunostaining and the density (0%=0, 1-40%=1, 41-75%=2, >76%=3) of positive tumor cells. The final score of each sample was multiplied by the intensity and density.
For subcutaneous GBM43 xenografts, NK cell infiltration was investigated by IF staining performed with the following stains: Protein L (Alexa 647, far red), NKp46 (Alexa 488, green) and DAPI nuclear counterstain. CCL5 and CXCL10 expression were evaluated by IHC staining as described above. CD73 expression in the tumors was detected through the staining using human CD73 antibody.
The treatment schedule is summarized in FIG. 17, subpart A. Briefly, 3×10^6 GBM43 cells were subcutaneously (SC) implanted into the right flank of the mice (Day 0). 10 days later (Day 10), mice in the CQ group were intraperitoneally (IP) injected with CQ at 50 mg/kg for 3 weeks, once a week. One day later (Day 11), the mice in pNK and CD73.mCAR-pNK groups were treated with 5×10^6 adoptively-transferred pNK or CD73.mCAR-pNK cells intravenously (IV), once a week for 3 weeks. Starting on the day of the first injection of NK cells, all mice received 0.5 μg of IL-15 once every 3-4 days IP.

Another data set concerns GBM. Particulars: chronic administration, controlled randomized trial / Phase III, diphosphate salt, cited from earlier work.
Another data set relates to GBM43-Luc cells. The data set can be described thus: Orthotopic GBM43 (Luc) xenograft model. Type of data set: in vivo, NSG mice. The method, then: Additionally, orthotopic GBM xenografts were generated using NSG mice as previously described. Briefly, on day 0, the GBM43 (Luc) cells (1×10^5) were stereotactically implanted into the right forebrain through a digitalized stereotactic delivery system. […] CD73.mCAR-pNK cells were administered once a week for three weeks. Tumor volumes were monitored and recorded using the Spectral Ami Optical imaging system. Body weights of the mice were also recorded during the treatment period. At the end of the treatment, the mice were sacrificed and whole brain tissues from each mouse were harvested for adenosine measurement and IHC/IF analyses.
as §1
For intracranial GBM xenografts, the NK cells in tumors were detected through the staining using human NKp46/NCR1 antibody. CCL5 and CXCL10 expression in the tumors were detected through the staining using human CCL5/RANTES antibody and CXCL10 antibody, respectively. CD73 expression in the tumors was detected through the staining using human CD73 antibody.
In addition to the foregoing, intratumoral adenosine concentrations were also assessed. Brain tissues were harvested post-treatment, rinsed with cold PBS and homogenized in PBS. After that, the suspension was centrifuged at 10,000 g for 10 minutes at 4° C. and the supernatant was collected. Adenosine concentrations were determined using an Adenosine Assay Kit according to the manufacturer's directions. The IHC staining was performed as described above.

In data set [3] the test system is GBM43 cells. The data set can be described thus: Surface expression of NKG2DL, CD73 and GD2 on GBM43 cells after CQ (flow cytometry). The class given is cell-based, human. The conditions noted are these: 24 h. The procedure:
In addition to the increase in NK cell intratumoral infiltration, NK2G2DL expression (MFI and percentage) on GBM43 cells after 24 hours of treatment with various concentrations of CQ was evaluated.

Data set [4] has as its system GBM43 cells. The data set can be described thus: GBM43 cell viability after CQ treatment (CCK-8). Type of data set: cell-based, human. The conditions noted are these: 24 h. The method, then: Alternatively, autophagy was inhibited pharmacologically via treatment with chloroquine (CQ), a common FDA-approved autophagy inhibitor (see FIG. 11). These targeting approaches were tested on both NK cell infiltration and effector functions. For this approach, GBM43 cells were treated with different concentrations of CQ. To determine in vitro cell viability in response to CQ, GBM43 cells were seeded in 96-well plates at a density of 1×10^4 cells/well. After overnight culture, the cells were treated with different concentrations of CQ and incubated for another 24 hours. The cell viability was then determined with CCK-8 assay analysis.

Read-outs that look alike come from different tables or passages of the source.

On to Chloroquine diphosphate salt [CQ], for which the “killing of CQ-treated GBM43 cells by human NK cells” value with GBM43 cells [1] is “sensitize GBM cells to superior killing”. The same substance displayed a mean tumor volume in the data set with GBM43 cells [2] (NK cells 5×10^6 IV once a week for 3 weeks, CQ 50 mg/kg IP, PBS group 1475) of 953.25 mm^3. For the same substance, in the data set on GBM43 cells [2] (mouse, in vivo), the “CCL5 in tumor tissues (IHC)” value is “significantly higher presence” and the “CXCL10 in tumor tissues (IHC)” value was “significantly higher presence”. In the data set on GBM43 cells [2] (necropsy day 28 post-start of treatment, PBS group 2.31), this substance returned a mean tumor weight of 1.16 g. Also, the “expression of CD73 on tumors (IHC)” value with GBM43 cells [2] (vs other treatment groups) is “lower level”. In addition, the “response of GBM to antineoplastic therapy with added chloroquine” value in the data set with GBM is recorded as “enhance clinical responses”. Further, the “response of GBM to antineoplastic therapy with added chloroquine” value in the data set on GBM (listed as chloroquine (CQ)) is “significantly enhanced response”. The “tumor growth (bioluminescence imaging)” value in the data set with GBM43-Luc cells (CQ 50 mg/kg IP, CD73.mCAR-pNK intracranial, weekly for three weeks, vs control group) was “no significant effect”. Also, in the data set on GBM43-Luc cells (mouse, in vivo), the “CCL5 expression in tumor tissues (IHC)” value is “robustly up-regulated”, the “CXCL10 expression in tumor tissues (IHC)” value was “robustly up-regulated” and the “crossing of the blood-brain barrier in vivo” value was “able to cross the blood-brain barrier”. Also, the “expression of CD73 (MFI) on GBM43 cells” value in the data set with GBM43 cells [3] (CQ 6.25 μM) was ~70 % of control. Besides, in the data set on GBM43 cells [3] (CQ 50 μM or higher), the “expression of GD2 (MFI) on GBM43 cells” value was “decreased”. In addition, the “NKG2DL expression (% and MFI) on GBM43 cells” value in the data set on GBM43 cells [3] (CQ at various concentrations) was “increased significantly”. The “percentage expression (%) of GD2 on GBM43 cells” value with GBM43 cells [3] (CQ up to 100 μM then constant, control cells ~58%) is listed as roughly 46%. In the data set with GBM43 cells [4], this substance came in with an IC50 of 67.1 µM.

As a reminder, the IC50 is the point on the concentration scale where inhibition reaches its midpoint. High values mean weaker potency, low ones greater potency.
